Test results reported in patent US20220170028A1, “NOVEL INTERLEUKIN-2 VARIANTS AND BIFUNCTIONAL FUSION MOLECULES THEREOF” (Cugene Inc, priority 2019, published 2022).
“Also recorded” adds a separate entry of the source.

What was measured:
Assay type in all cases: cell-based
[1] = test system: CD4+ Treg vs CD4+ Tconv cells; test: STAT5 phosphorylation, selectivity / activity profile Treg versus CD4+ Tconv cells, human PBMC
Text: (§1) Single amino acid substitutions were introduced to IL-2 at positions corresponding to amino acids interacting with receptor subunit(s) β or γ or βγ. These substitutions were aimed to reduce IL-2 signaling capacity through the intermediate affinity IL-2Rβγ complex and confer signaling specificity from the high affinity IL-2Rαβγ. IL-2 variants containing single amino acid substitutions were examined for their ability to differentially stimulate STAT5 phosphorylation in CD4 positive Treg and Tconv cells. STAT5 is known to be involved in the downstream signaling cascade upon IL-2 binding to the transmembrane IL-2 receptors. The phosphorylation of STAT5 in defined lymphocyte subpopulations was measured using fresh human peripheral blood mononuclear cells (PBMC) and the forkhead transcription factor FOXP3 was used to identify the Treg population in FACS analysis.
(§2) Briefly, human PBMC were isolated by Ficoll-Hypaque centrifugation from the buffy coat of a healthy donor. PBMC were starved in serum-free MACS buffer at 4° C. for 1 hour. 2×10^5 PBMC were then treated with serial dilutions of test compounds for 30 min at 37° C. Cells were fixed and permeabilized with Foxp3/Transcription Factor Staining Buffer Set (EBIO) by incubating with 1× Foxp3 fixation/permeabilization working solution for 30 minutes and washing with 1× permeabilization buffer. Cells were additionally fixed with Cytofix buffer and permeabilized with Perm Buffer III (BD Biosciences) and then washed. After blocking Fc receptors by adding human TruStain FcX (1:50 dilution), cells were stained with a mixture of anti-CD25-PE, anti-FOXP3-APC, anti-pSTAT5-FITC, and anti-CD4-PerCP-Cy5.5 antibodies at concentrations recommended by the manufacturer for 45 minutes at room temperature. Cells were collected by centrifugation, washed, resuspended in FACS buffer, and analyzed by flow cytometry. The flow cytometry data was gated into CD4+/Foxp3+/CD25^high and CD4+/Foxp3−/CD25^low groups for the Treg and CD4 conventional T cell subsets, respectively. Data are expressed as a percent of pStat5 positive cells in gated population.
The S125I substitution was then introduced into wild-type IL-2 or IL-2 variants that already harbored 1 or 2 mutations targeting receptor subunit(s) β or γ or βγ. The resulting IL-2 variants containing isoleucine at position 125 were tested for their ability to stimulate STAT5 phosphorylation in Treg and Tconv cells in comparison with their respective serine counterparts at position 125. Table 7 lists the potency and selectivity of IL-2 variants in Treg cells. The two molecules in the same row of Table 7 share the same other amino acid substitution(s) and differ only at position 125 with either serine or isoleucine.

[2] = test system: STAT5 phosphorylation in CD4+ Treg cells; test: STAT5 phosphorylation in CD4+ Treg cells, human PBMC assay by FACS
Text: as §1, §2

[3] = test system: STAT5 phosphorylation in CD4+ Tconv cells; test: STAT5 phosphorylation in CD4+ Tconv cells, human PBMC assay by FACS
Text: as §1, §2

Substance	activity profile / selectivity window Treg over CD4+ Tconv (in words) [1]	STAT5 phosphorylation activity in Treg cells (in words) [2]	STAT5 phosphorylation activity in CD4+ Tconv cells (in words) [3]	also measured
P-0303: IL-2 Q126E Fc fusion, SEQ ID NO: 90	modestly improved selective window	minimally impacted the pSTAT5 activation potency		
P-0862: Fc fusion, 5 amino acid N-terminal deletion of P-0511 IL-2 variant (Table 4H prints L19D), SEQ ID NO: 302		fully retained potency		
P-0589: Tocilizumab IL-2 D20N/S125I bivalent fusion, SEQ ID NOs 253 + 258		reduced potency		
P-0590: Tocilizumab IL-2 L19N/S125I/Q126E bivalent fusion, SEQ ID NOs 253 + 267		reduced potency		maximum possible effect / signaling amplitude of STAT5 phosphorylation in Treg cells [2]: lower signaling amplitude
P-0448: IL-2 L19Q/Q126E Fc fusion, SEQ ID NO: 174	on par with Benchmark-2	significant potency	largely abolished	
P-0700: Tocilizumab IL-2 L19H/S125I/Q126T bivalent fusion, SEQ ID NOs 253 + 307	did not impair the protein activity nor improve the Treg selectivity			
P-0427: IL-2 L19S Fc fusion, SEQ ID NO: 156			largely retained the biological activity	
P-0423: IL-2 L19Q Fc fusion, SEQ ID NO: 152			largely retained the biological activity	
P-0536: Tocilizumab IL-2 L19H/S125I/Q126E bivalent fusion, SEQ ID NOs 253 + 255		slightly higher activity than its monomeric equivalent P-0546		
P-0697: Tocilizumab IL-2 L19H/S125I/Q126N bivalent fusion, SEQ ID NOs 253 + 310	did not impair the protein activity nor improve the Treg selectivity			
P-0367: IL-2 D20S Fc fusion, SEQ ID NO: 78		ability to induce STAT5 phosphorylation	largely diminished or abolished	
P-0464: IL-2 L19Y/Q126K Fc fusion, SEQ ID NO: 176		retained comparable potency	varied significantly	
P-0698: Tocilizumab IL-2 L19H/S125I/Q126R bivalent fusion, SEQ ID NOs 253 + 311	did not impair the protein activity nor improve the Treg selectivity			
P-0365: IL-2 D20N Fc fusion, SEQ ID NO: 76		ability to induce STAT5 phosphorylation	largely diminished or abolished	
P-0374: IL-2 L19R Fc fusion, SEQ ID NO: 83			largely retained the biological activity	
P-0322: IL-2 D20T/Q126E Fc fusion, SEQ ID NO: 99		pronounced reduced potency		

Substance	activity profile / selectivity window Treg over CD4+ Tconv (in words) [1]	STAT5 phosphorylation activity in Treg cells (in words) [2]	STAT5 phosphorylation activity in CD4+ Tconv cells (in words) [3]	also measured
P-0366: IL-2 D20Q Fc fusion, SEQ ID NO: 77		ability to induce STAT5 phosphorylation	largely diminished or abolished	
P-0699: Tocilizumab IL-2 L19H/S125I/Q126S bivalent fusion, SEQ ID NOs 253 + 312	did not impair the protein activity nor improve the Treg selectivity			
P-0480: IL-2 L19H/Q126K Fc fusion, SEQ ID NO: 189				Treg Selectivity ([1]; Serine-125 constructs): Yes
P-0694: Tocilizumab IL-2 L19H/S125I/Q126D bivalent fusion, SEQ ID NOs 253 + 308	wide selectivity window	reduced potency	essentially abolished	
P-0559: Tocilizumab IL-2 D20Q/S125I bivalent fusion, SEQ ID NOs 253 + 265	selective activation of Treg cells over CD4+ Tconv cells	reduced potency	essentially abolished	
P-0373: IL-2 L19N Fc fusion, SEQ ID NO: 82	wide window for selective targeting of Treg subset; also recorded: some or significant biased selective window		reduced	
P-0368: IL-2 D20Y Fc fusion, SEQ ID NO: 79		no biological activity	no biological activity	
P-0859: IL-2 L19N/S125I/Q126E Fc fusion, SEQ ID NO: 306		different levels of potency attenuation		maximum possible effect / signaling amplitude of STAT5 phosphorylation in Treg cells [2]: moderately reduced
P-0860: IL-2 L19D/S125I/Q126E Fc fusion, SEQ ID NO: 300		different levels of potency attenuation		maximum possible effect / signaling amplitude of STAT5 phosphorylation in Treg cells [2]: strikingly lower
P-0449: IL-2 L19S/Q126E Fc fusion, SEQ ID NO: 175	on par with Benchmark-2	significant potency	largely abolished	
P-0863: Fc fusion, 7 amino acid N-terminal deletion of P-0511 IL-2 variant (Table 4H prints L19D), SEQ ID NO: 303		fully retained potency		
P-0417: IL-2 L19N/Q126E Fc fusion, SEQ ID NO: 103		pronounced reduced potency		
P-0588: Tocilizumab IL-2 D20S/S125I bivalent fusion, SEQ ID NOs 253 + 257		reduced potency		
P-0474: IL-2 L19Y/Q22K Fc fusion, SEQ ID NO: 186		retained comparable potency	varied significantly	
P-0695: Tocilizumab IL-2 L19H/S125I/Q126H bivalent fusion, SEQ ID NOs 253 + 309	did not impair the protein activity nor improve the Treg selectivity			
